The record followed here is US7414042B2, “Method and composition for selectively inhibiting melanoma” (The Board of Trustees of The University of Illinois, priority 1995, dated 2008).

In data set [1] the test system is human melanoma and nonmelanoma cancer cell lines.
The test system of the next data set is MEL-2 (melanoma). The experiment in a line: Cytotoxicity against cultured human melanoma cells (SRB). In kind it is cell-based. To be noted: three days incubation, SRB, Table 1 and text; for IC50: Homo sapiens, MEL2, 72 h, read-out: ED50 MEL-2. The method, then:
(§1) The plates were incubated for three days. […] Dose response studies were performed to generate ED50 values.

The test system of the next data set is COL-2 (colon). Description: Cytotoxicity against cultured human cancer cells (SRB). It is filed as cell-based. To be noted: three days incubation, SRB; for IC50: Homo sapiens, Col2, 72 h, read-out: ED50 COL-2. The method, then:
as §1

The next data set concerns ZR-75-1 (breast). The data set is described as above. It is filed as cell-based. To be noted: three days incubation, SRB; for IC50: Homo sapiens, ZR-75-1, 72 h, read-out: ED50 ZR 75-1. The method, then:
as §1

Another data set has as its system A431 (squamous cells). Described as above. Conditions: three days incubation, SRB; for IC50: Homo sapiens, A-431, 72 h, read-out: ED50 A431. In kind it is cell-based. The method, then: as §1
Data set [2] concerns KB (human oral epidermoid carcinoma). The description is as above. In kind it is cell-based. To be noted: three days incubation, SRB, Table 1; for IC50: Homo sapiens, 72 h, read-out: ED50 KB. Here is the method:
as §1

In the next data set the test system is U373 (glioma). The description is as above. To be noted: three days incubation, SRB; for IC50: Homo sapiens, U373 MG, 72 h, read-out: ED50 U373. In kind it is cell-based. The method, then:
as §1

A further data set relates to BC-1 (breast). Described as above. In kind it is cell-based. Conditions: three days incubation, SRB; for IC50: Homo sapiens, 72 h, read-out: ED50 BC-1. The method, then: as §1
For a further data set, the system named is LNCaP (prostate). Described as above. It is filed as cell-based. Conditions: three days incubation, SRB; for IC50: Homo sapiens, LNCaP, 72 h, read-out: ED50 LNCaP. Here is the method:
as §1

The subject of a further data set is HT-1080 (sarcoma). The description is as above. It is filed as cell-based. To be noted: three days incubation; for IC50: Homo sapiens, HT-1080, 72 h, read-out: ED50 HT-1080. The method, then:
as §1

The test system of another data set is LU-1 (lung). Described as above. It is filed as cell-based. To be noted: three days incubation; for IC50: Homo sapiens, 72 h, read-out: ED50 LU-1. The method, then: as §1
Data set [3] relates to human melanoma and nonmelanoma cancer cell lines. The experiment in a line: Cytotoxicity profile across the panel of human cancer cell lines. Conditions: Table 1 panel.
Method: In the following Table 1, the extracted betulinic acid and the other pure compounds were tested for cycotoxity against the following cultured human cell lines: A431 (squamous cells), BC-1 (breast), COL-2 (colon), HT-1080 (sarcoma), KB (human oral epidermoid carcinoma), LNCaP (prostate), LU-1 (lung), MEL-2 (melanoma), U373 (glioma) and ZR-75-1 (breast).
Cytotoxicity of the crude extracts and purified compounds was determined in a number of cultured human cancer cell lines. The cells were cultured in appropriate media and under standard conditions. To maintain logarithmic growth, the media were changed 24 hours prior to cytotoxic assays. On the day of the assay, the cells were harvested by trypsinization, counted, diluted in media, and added to 96-well plates containing test compounds dissolved in DMSO; the final DMSO concentration was 0.05%.
The plates were incubated for three days. Following the incubation period, the cells were fixed and stained with sulforhodamine B (SRB) dye. The bound dye was liberated with Tris base, and the OD515 was measured on an ELISA reader. The growth of the betulinic acid-treated cells was determined by the OD515 values, and the growth was compared to the OD515 values of DMSO-treated control cells. Dose response studies were performed to generate ED50 values.
The biological evaluation of the derivatives focused on the activity against human melanoma cell lines. In particular, the following betulinic acid derivatives were prepared and tested for cytotoxicity profile against human melanoma cell lines and against a number of selected nonmelanoma cell lines.

≈ marks a conversion by molar mass, not a printed value. Where two headings read alike, the source gives them in different places.

Take `Cc1c2ccncc2c(C)c2c1[nH]c1ccccc12` [Ellipticine]: the “cytotoxic activity profile, cell-type selectivity” value in data set [1] is “relatively intense, nonselective cytotoxic activity”. Besides, the IC50 with MEL-2 (melanoma) was determined as 0.9 µg/mL (≈ 3.65 µM); in the data set on COL-2 (colon) it was 0.3 µg/mL (≈ 1.22 µM); in the data set on ZR-75-1 (breast), 0.9 µg/mL (≈ 3.65 µM); in the data set with A431 (squamous cells), 0.5 µg/mL (≈ 2.03 µM); in data set [2] it was 0.04 µg/mL (≈ 0.162 µM); with U373 (glioma) it was 1.6 µg/mL (≈ 6.5 µM). For the same molecule, the IC50 was 0.2 µg/mL (≈ 0.812 µM) in the data set on BC-1 (breast), 0.8 µg/mL (≈ 3.25 µM) with LNCaP (prostate), 1.8 µg/mL (≈ 7.31 µM) in the data set on HT-1080 (sarcoma) and 0.02 µg/mL (≈ 0.0812 µM) in the data set with LU-1 (lung).

Consider `COC(=O)C[C@](O)(CCCC(C)(C)O)C(=O)O[C@@H]1C(OC)=C[C@]23CCCN2CCc2cc4c(cc2[C@H]13)OCO4` [Homoharringtonine], for which the IC50 is 0.04 µg/mL (≈ 0.0733 µM) with MEL-2 (melanoma); 0.1 µg/mL (≈ 0.183 µM) in the data set with COL-2 (colon); 0.06 µg/mL (≈ 0.11 µM) in the data set with ZR-75-1 (breast); 0.02 µg/mL (≈ 0.0367 µM) in the data set on A431 (squamous cells); 0.2 µg/mL (≈ 0.367 µM) in the data set with U373 (glioma); 0.03 µg/mL (≈ 0.055 µM) with BC-1 (breast). For the same molecule, the IC50 came out at 0.03 µg/mL (≈ 0.055 µM) with LNCaP (prostate), 0.01 µg/mL (≈ 0.0183 µM) in the data set on HT-1080 (sarcoma) and 0.03 µg/mL (≈ 0.055 µM) with LU-1 (lung). Moreover, in data set [3], the “cytotoxic activity profile, cell-type selectivity” value is listed as “relatively intense, nonselective cytotoxic activity”.

As for `CO[C@H](C(=O)[C@@H](O)[C@@H](C)O)[C@@H]1Cc2cc3cc(O[C@H]4C[C@@H](O[C@H]5C[C@@H](O)[C@H](O)[C@@H](C)O5)[C@H](O)[C@@H](C)O4)c(C)c(O)c3c(O)c2C(=O)[C@H]1O[C@H]1C[C@@H](O[C@H]2C[C@@H](O[C@H]3C[C@](C)(O)[C@H](O)[C@@H](C)O3)[C@@H](O)[C@@H](C)O2)[C@H](O)[C@@H](C)O1` [Mithramycin A], the “ED50 MEL-2” value in the data set on MEL-2 (melanoma) came to 1.2 µg/mL (≈ 1.11 µM). The “ED50 COL-2” value in the data set on COL-2 (colon) is 0.06 µg/mL (≈ 0.0553 µM). For the same molecule, the “ED50 ZR 75-1” value in the data set with ZR-75-1 (breast) worked out at 0.2 µg/mL (≈ 0.184 µM). Also, the “ED50 A431” value in the data set with A431 (squamous cells) worked out at 0.09 µg/mL (≈ 0.0829 µM). For the same molecule, in [2], the “ED50 KB” value was found to be 0.09 µg/mL (≈ 0.0829 µM). The “ED50 U373” value in the data set on U373 (glioma) is 0.04 µg/mL (≈ 0.0369 µM). Moreover, the “ED50 BC-1” value with BC-1 (breast) worked out at 0.3 µg/mL (≈ 0.276 µM). In addition, in the data set on LNCaP (prostate), the “ED50 LNCaP” value was determined as 0.05 µg/mL (≈ 0.0461 µM). The “ED50 HT-1080” value in the data set on HT-1080 (sarcoma) worked out at 1.5 µg/mL (≈ 1.38 µM). Besides, the “ED50 LU-1” value in the data set on LU-1 (lung) turned out to be 0.2 µg/mL (≈ 0.184 µM). Moreover, in data set [3], the “cytotoxic activity profile, cell-type selectivity” value was “relatively intense, nonselective cytotoxic activity”.

As for `CC[C@]1(O)C[C@@H]2CN(CCc3c([nH]c4ccccc34)[C@@](C(=O)OC)(c3cc4c(cc3OC)N(C)[C@H]3[C@@](O)(C(=O)OC)[C@H](OC(C)=O)[C@]5(CC)C=CCN6CC[C@]43[C@@H]65)C2)C1` [Vinbiastine, vinblastine], the IC50 is 0.01 µg/mL (≈ 0.0123 µM) in the data set with MEL-2 (melanoma); 0.01 µg/mL (≈ 0.0123 µM) with COL-2 (colon); 0.3 µg/mL (≈ 0.37 µM) in the data set on ZR-75-1 (breast); 0.05 µg/mL (≈ 0.0617 µM) in the data set on A431 (squamous cells); 0.04 µg/mL (≈ 0.0493 µM) in data set [2]; 1.1 µg/mL (≈ 1.36 µM) in the data set on U373 (glioma). Besides, the IC50 stood at 0.06 µg/mL (≈ 0.074 µM) with BC-1 (breast), 0.1 µg/mL (≈ 0.123 µM) in the data set on LNCaP (prostate), 0.02 µg/mL (≈ 0.0247 µM) in the data set with HT-1080 (sarcoma) and 0.02 µg/mL (≈ 0.0247 µM) with LU-1 (lung). Moreover, the “cytotoxic activity profile, cell-type selectivity” value in [3] was “relatively intense, nonselective cytotoxic activity”.

Consider `CC[C@]1(O)C[C@H]2CN(CCc3c([nH]c4ccccc34)[C@@](C(=O)OC)(c3cc4c(cc3OC)N(C=O)[C@H]3[C@@](O)(C(=O)OC)[C@H](OC(C)=O)[C@]5(CC)C=CCN6CC[C@]43[C@@H]65)C2)C1` [Vincristine], for which the IC50 turned out to be 0.02 µg/mL (≈ 0.0242 µM) in the data set on MEL-2 (melanoma); 0.02 µg/mL (≈ 0.0242 µM) with COL-2 (colon); 0.4 µg/mL (≈ 0.485 µM) in the data set on ZR-75-1 (breast); 0.01 µg/mL (≈ 0.0121 µM) in the data set on A431 (squamous cells); 0.06 µg/mL (≈ 0.0727 µM) in the data set on U373 (glioma); 0.01 µg/mL (≈ 0.0121 µM) with BC-1 (breast). For the same molecule, the IC50 with LNCaP (prostate) was determined as 0.1 µg/mL (≈ 0.121 µM); with HT-1080 (sarcoma), 0.02 µg/mL (≈ 0.0242 µM); in the data set on LU-1 (lung) it was 0.05 µg/mL (≈ 0.0606 µM). Moreover, in data set [3], the “cytotoxic activity profile, cell-type selectivity” value is recorded as “relatively intense, nonselective cytotoxic activity”.
